# Patent US6737383B1, “Herbicidal oxadiazolidines” (priority 1999, dated 2004)
# Experiments:
# bedstraw = assay: Test B pre/postemergence bedstraw; type: in vivo, Galium aparine; details: Preemergence; for Plant response rating, Bedstraw: Rate 62 g/ha, scale of 0 to 10 where 0 is no effect and 10 is complete control; for Bedstraw plant response rating: scale 0 to 10, 0 is no effect, 10 is complete control
# Outline: (§1)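 Herbicidal effect was estimated by eye on a ten-point control scale after plants spent twelve to sixteen days in a greenhouse following soil or foliar treatment. Foliar sprays targeted plants at one to four leaves; all doses were formulated in a non-phytotoxic solvent with surfactant.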
# blackgrass = assay: Test B pre/postemergence blackgrass; type: in vivo, Alopecurus myosuroides
# Text: (§2) Seeds of bedstraw (Galium aparine), blackgrass (Alopecurus myosuroides), surinam grass (Brachiaria decumbens), cocklebur (Xanthium strumarium), corn (Zea mays), crabgrass (Digitaria sanguinalis), giant foxtail (Setaria faberii), morningglory (Ipomoea hederacea), pigweed (Amaranthus retroflexus), rape (Brassica napus), soybean (Glycine max), sugar beet (Beta vulgaris), velvetleaf (Abutilon theophrasti), wheat (Triticum aestivum), wild oat (Avena fatua) and purple nutsedge (Cyperus rotundus) tubers were planted and treated preemnergence with test chemicals formulated in a non-phytotoxic solvent mixture which included a surfactant.
# (§3) At the same time, these crop and weed species were also treated with postemergence applications of test chemicals formulated in the same manner. Plants ranged in height from 2 to 18 cm (1- to 4-leaf stage) for postemergence treatments. Plant species in the flood test consisted of rice (Oryza sativa), smallflower flatsedge (Cyperus difformis), duck salad (Heteranthera limosa) and bamyardgrass (Echinochloa crus-galli) grown to the 2-leaf stage for testing. Treated plants and controls were maintained in a greenhouse for twelve to sixteen days, after which all species were compared to controls and visually evaluated. Plant response ratings, summarized in Table B, are based on a scale of 0 to 10 where 0 is no effect and 10 is complete control. A dash (−) response means no test result.
# surinam grass = assay: Test B pre/postemergence surinam grass; type: in vivo, Brachiaria decumbens
# Text: as §2, §3
# cocklebur = assay: Test B pre/postemergence cocklebur; type: in vivo, Xanthium strumarium
# Text: as §2, §3
# corn = assay: Test B pre/postemergence corn; type: in vivo, Zea mays
# Text: as §2, §3
# crabgrass = assay: Test B pre/postemergence crabgrass; type: in vivo, Digitaria sanguinalis
# Text: as §2, §3
# giant foxtail = assay: Test B pre/postemergence giant foxtail; type: in vivo, Setaria faberii
# Text: as §2, §3
# morningglory = assay: Test B pre/postemergence morningglory; type: in vivo, Ipomoea hederacea
# Text: as §2, §3
# pigweed = assay: Test B pre/postemergence pigweed; type: in vivo, Amaranthus retroflexus
# Text: as §2, §3
# rape = assay: Test B pre/postemergence rape; type: in vivo, Brassica napus
# Text: as §2, §3
# soybean = assay: Test B pre/postemergence soybean; type: in vivo, Glycine max
# Outline: as §1
# sugar beet = assay: Test B pre/postemergence sugar beet; type: in vivo, Beta vulgaris
# Text: as §2, §3
# velvetleaf = assay: Test B pre/postemergence velvetleaf; type: in vivo, Abutilon theophrasti
# Text: as §2, §3
# wheat = assay: Test B pre/postemergence wheat; type: in vivo, Triticum aestivum
# Outline: as §1
# wild oat = assay: Test B pre/postemergence wild oat; type: in vivo, Avena fatua
# Text: as §2, §3
# purple nutsedge = assay: Test B pre/postemergence purple nutsedge; type: in vivo, Cyperus rotundus
# Text: as §2, §3
# [1] = Postemergence, Rate 62 g/ha, scale of 0 to 10, 0 is no effect, 10 is complete control
# [2] = Postemergence, Rate 125 g/ha, scale 0 to 10, 0 is no effect, 10 is complete control
# [3] = Postemergence, Rate 250 g/ha, scale 0 to 10
# [4] = Postemergence, Rate 500 g/ha, scale 0 to 10, 0 is no effect, 10 is complete control
# [5] = Preemergence, Rate 62 g/ha, scale of 0 to 10 where 0 is no effect and 10 is complete control
# [6] = Preemergence, Rate 125 g/ha, scale 0 to 10, 0 is no effect, 10 is complete control
# [7] = Preemergence, Rate 250 g/ha, scale 0 to 10, 0 is no effect, 10 is complete control
# [8] = Preemergence, Rate 500 g/ha, scale of 0 to 10 where 0 is no effect and 10 is complete control
# [9] = Postemergence, Rate 250 g/ha, scale 0 to 10, 0 no effect, 10 complete control
# [10] = Preemergence, Rate 500 g/ha, scale 0 to 10, 0 is no effect, 10 is complete control
structure (smiles),measurement,setting,value
CC(C)N(C(=O)n1oc(=O)n(CCc2ccccc2)c1=O)c1ccc(F)cc1F [Compound 508],"Plant response rating, Bedstraw",bedstraw,0
same,Bedstraw plant response rating,bedstraw; Rate 125 g/ha,0
same,Bedstraw plant response rating,bedstraw; Rate 250 g/ha,0
same,Bedstraw plant response rating,bedstraw; Rate 500 g/ha,0
same,Blackgrass plant response rating,blackgrass; [1],0
same,Blackgrass plant response rating,blackgrass; [2],3
same,Blackgrass plant response rating,blackgrass; [3],6
same,"Plant response rating, Blackgrass",blackgrass; [4],6
same,"Plant response rating, Blackgrass",blackgrass; [5],1
same,Blackgrass plant response rating,blackgrass; [6],3
same,Blackgrass plant response rating,blackgrass; [7],5
same,Blackgrass plant response rating,blackgrass; [8],8
same,B. signalgrass plant response rating,surinam grass; [1],0
same,B. signalgrass plant response rating,surinam grass; [2],0
same,B. signalgrass plant response rating,surinam grass; [9],3
same,"Plant response rating, B. signalgrass",surinam grass; [4],3
same,"Plant response rating, B. signalgrass",surinam grass; [5],4
same,B. signalgrass plant response rating,surinam grass; [6],7
same,B. signalgrass plant response rating,surinam grass; [7],8
same,B. signalgrass plant response rating,surinam grass; [10],8
same,Cocklebur plant response rating,cocklebur; [1],0
same,Cocklebur plant response rating,cocklebur; [2],1
same,Cocklebur plant response rating,cocklebur; [3],4
same,"Plant response rating, Cocklebur",cocklebur; [4],4
same,"Plant response rating, Cocklebur",cocklebur; [5],0
same,Cocklebur plant response rating,cocklebur; [6],0
same,Cocklebur plant response rating,cocklebur; [7],0
same,Cocklebur plant response rating,cocklebur; [8],0
same,Corn plant response rating,corn; [1],0
same,Corn plant response rating,corn; [2],0
same,Corn plant response rating,corn; [3],0
same,"Plant response rating, Corn",corn; [4],3
same,"Plant response rating, Corn",corn; [5],0
same,Corn plant response rating,corn; [6],0
same,Corn plant response rating,corn; [8],4
same,Crabgrass plant response rating,crabgrass; [1],9
same,Crabgrass plant response rating,crabgrass; [2],9
same,Crabgrass plant response rating,crabgrass; [3],9
same,"Plant response rating, Crabgrass",crabgrass; [4],9
same,"Plant response rating, Crabgrass",crabgrass; [5],6
same,Crabgrass plant response rating,crabgrass; [6],9
same,Crabgrass plant response rating,crabgrass; [8],10
same,Giant foxtail plant response rating,giant foxtail; [1],8
same,Giant foxtail plant response rating,giant foxtail; [2],8
same,"Plant response rating, Giant foxtail",giant foxtail; [4],8
same,"Plant response rating, Giant foxtail",giant foxtail; [5],10
same,Giant foxtail plant response rating,giant foxtail; [6],10
same,Giant foxtail plant response rating,giant foxtail; [8],10
same,Morningglory plant response rating,morningglory; [1],3
same,Morningglory plant response rating,morningglory; [2],3
same,"Plant response rating, Morningglory",morningglory; [4],7
same,"Plant response rating, Morningglory",morningglory; [5],0
same,Morningglory plant response rating,morningglory; [6],0
same,Morningglory plant response rating,morningglory; [8],0
same,Redroot pigweed plant response rating,pigweed; [1],3
same,Redroot pigweed plant response rating,pigweed; [2],7
same,"Plant response rating, Redroot pigweed",pigweed; [4],9
same,"Plant response rating, Redroot pigweed",pigweed; [5],7
same,Redroot pigweed plant response rating,pigweed; [6],8
same,Redroot pigweed plant response rating,pigweed; [8],10
same,Rape plant response rating,rape; [1],1
same,Rape plant response rating,rape; [2],5
same,"Plant response rating, Rape",rape; [4],8
same,"Plant response rating, Rape",rape; [5],0
same,Rape plant response rating,rape; [6],0
same,Rape plant response rating,rape; [8],3
same,Soybean plant response rating,soybean; [1],4
same,Soybean plant response rating,soybean; [2],4
same,"Plant response rating, Soybean",soybean; [4],5
same,"Plant response rating, Soybean",soybean; [5],0
same,Soybean plant response rating,soybean; [6],0
same,Soybean plant response rating,soybean; [8],0
same,Sugarbeets plant response rating,sugar beet; [1],0
same,Sugarbeets plant response rating,sugar beet; [2],1
same,"Plant response rating, Sugarbeets",sugar beet; [4],9
same,"Plant response rating, Sugarbeets",sugar beet; [5],1
same,Sugarbeets plant response rating,sugar beet; [6],1
same,Sugarbeets plant response rating,sugar beet; [8],6
same,Velvetleaf plant response rating,velvetleaf; [1],0
same,Velvetleaf plant response rating,velvetleaf; [2],1
same,"Plant response rating, Velvetleaf",velvetleaf; [4],2
same,"Plant response rating, Velvetleaf",velvetleaf; [5],0
same,Velvetleaf plant response rating,velvetleaf; [6],0
same,Velvetleaf plant response rating,velvetleaf; [8],0
same,Wheat plant response rating,wheat; [1],0
same,Wheat plant response rating,wheat; [2],0
same,"Plant response rating, Wheat",wheat; [4],0
same,"Plant response rating, Wheat",wheat; [5],0
same,Wheat plant response rating,wheat; [6],0
same,Wheat plant response rating,wheat; [8],2
same,Wild oats plant response rating,wild oat; [1],0
same,Wild oats plant response rating,wild oat; [2],0
same,"Plant response rating, Wild oats",wild oat; [4],4
same,"Plant response rating, Wild oats",wild oat; [5],3
same,Wild oats plant response rating,wild oat; [6],4
same,Wild oats plant response rating,wild oat; [8],7
same,"Plant response rating, Nutsedge",purple nutsedge; [4],0
C=CCCCn1c(=O)on(C(=O)N(c2ccc(F)cc2F)C(C)C)c1=O [Compound 516],"Plant response rating, Bedstraw",bedstraw,0
same,Bedstraw plant response rating,bedstraw; Rate 125 g/ha,0
same,Bedstraw plant response rating,bedstraw; Rate 250 g/ha,1
same,Bedstraw plant response rating,bedstraw; Rate 500 g/ha,7
same,Blackgrass plant response rating,blackgrass; [1],0
same,Blackgrass plant response rating,blackgrass; [2],4
same,Blackgrass plant response rating,blackgrass; [3],7
same,"Plant response rating, Blackgrass",blackgrass; [4],7
same,"Plant response rating, Blackgrass",blackgrass; [5],3
same,Blackgrass plant response rating,blackgrass; [6],5
same,Blackgrass plant response rating,blackgrass; [7],8
same,Blackgrass plant response rating,blackgrass; [8],10
same,B. signalgrass plant response rating,surinam grass; [1],0
same,B. signalgrass plant response rating,surinam grass; [2],0
same,B. signalgrass plant response rating,surinam grass; [9],3
same,"Plant response rating, B. signalgrass",surinam grass; [4],5
same,"Plant response rating, B. signalgrass",surinam grass; [5],1
same,B. signalgrass plant response rating,surinam grass; [6],5
same,B. signalgrass plant response rating,surinam grass; [7],9
same,B. signalgrass plant response rating,surinam grass; [10],10
same,Cocklebur plant response rating,cocklebur; [1],2
same,Cocklebur plant response rating,cocklebur; [2],3
same,Cocklebur plant response rating,cocklebur; [3],3
same,"Plant response rating, Cocklebur",cocklebur; [4],5
same,"Plant response rating, Cocklebur",cocklebur; [5],0
same,Cocklebur plant response rating,cocklebur; [6],0
same,Cocklebur plant response rating,cocklebur; [7],0
same,Cocklebur plant response rating,cocklebur; [8],0
same,Corn plant response rating,corn; [1],0
same,Corn plant response rating,corn; [2],0
same,Corn plant response rating,corn; [3],0
same,"Plant response rating, Corn",corn; [4],0
same,"Plant response rating, Corn",corn; [5],0
same,Corn plant response rating,corn; [6],0
same,Corn plant response rating,corn; [8],0
same,Crabgrass plant response rating,crabgrass; [1],3
same,Crabgrass plant response rating,crabgrass; [2],9
same,"Plant response rating, Crabgrass",crabgrass; [4],9
same,"Plant response rating, Crabgrass",crabgrass; [5],6
same,Crabgrass plant response rating,crabgrass; [6],9
same,Crabgrass plant response rating,crabgrass; [8],10
same,Giant foxtail plant response rating,giant foxtail; [1],0
same,Giant foxtail plant response rating,giant foxtail; [2],5
same,"Plant response rating, Giant foxtail",giant foxtail; [4],9
same,"Plant response rating, Giant foxtail",giant foxtail; [5],10
same,Giant foxtail plant response rating,giant foxtail; [6],10
same,Giant foxtail plant response rating,giant foxtail; [8],10
same,Morningglory plant response rating,morningglory; [1],2
same,Morningglory plant response rating,morningglory; [2],3
same,"Plant response rating, Morningglory",morningglory; [4],7
same,"Plant response rating, Morningglory",morningglory; [5],0
same,Morningglory plant response rating,morningglory; [6],0
same,Morningglory plant response rating,morningglory; [8],0
same,Redroot pigweed plant response rating,pigweed; [1],4
same,"Plant response rating, Redroot pigweed",pigweed; [4],8
same,"Plant response rating, Redroot pigweed",pigweed; [5],7
same,Redroot pigweed plant response rating,pigweed; [8],10
same,Rape plant response rating,rape; [1],1
same,Rape plant response rating,rape; [2],4
same,"Plant response rating, Rape",rape; [4],9
same,"Plant response rating, Rape",rape; [5],0
same,Rape plant response rating,rape; [6],1
same,Rape plant response rating,rape; [8],9
same,Soybean plant response rating,soybean; [1],4
same,Soybean plant response rating,soybean; [2],4
same,"Plant response rating, Soybean",soybean; [4],7
same,"Plant response rating, Soybean",soybean; [5],0
same,Soybean plant response rating,soybean; [6],0
same,Soybean plant response rating,soybean; [8],0
same,Sugarbeets plant response rating,sugar beet; [1],0
same,Sugarbeets plant response rating,sugar beet; [2],0
same,"Plant response rating, Sugarbeets",sugar beet; [4],8
same,"Plant response rating, Sugarbeets",sugar beet; [5],1
same,Sugarbeets plant response rating,sugar beet; [6],3
same,Sugarbeets plant response rating,sugar beet; [8],7
same,Velvetleaf plant response rating,velvetleaf; [1],3
same,Velvetleaf plant response rating,velvetleaf; [2],4
same,"Plant response rating, Velvetleaf",velvetleaf; [4],4
same,"Plant response rating, Velvetleaf",velvetleaf; [5],0
same,Velvetleaf plant response rating,velvetleaf; [8],7
same,Wheat plant response rating,wheat; [1],0
same,Wheat plant response rating,wheat; [2],1
same,"Plant response rating, Wheat",wheat; [4],7
same,"Plant response rating, Wheat",wheat; [5],0
same,Wheat plant response rating,wheat; [6],0
same,Wheat plant response rating,wheat; [8],5
same,Wild oats plant response rating,wild oat; [1],0
same,Wild oats plant response rating,wild oat; [2],2
same,"Plant response rating, Wild oats",wild oat; [4],5
same,"Plant response rating, Wild oats",wild oat; [5],0
same,Wild oats plant response rating,wild oat; [6],5
same,Wild oats plant response rating,wild oat; [8],9
same,Nutsedge plant response rating,purple nutsedge; [1],0
same,Nutsedge plant response rating,purple nutsedge; [2],0
same,"Plant response rating, Nutsedge",purple nutsedge; [5],0
same,Nutsedge plant response rating,purple nutsedge; [6],0
same,Nutsedge plant response rating,purple nutsedge; [8],0
